From patent publication US20100150938A1, “METHODS AND COMPOSITIONS FOR REDUCING INFLAMMATION AND TREATING INFLAMMATORY DISORDERS” (UNIVERSITY OF MASSACHUSETTS, priority 2008, published 2010) come the findings set out here.

“Also recorded” adds a separate entry of the source. Non-standard residues stand in square brackets, D forms with d. Residues, ends and D or L forms follow the SMILES beside them. *: point of attachment. Sta = CC(C)C[C@H](N)[C@@H](O)CC(=O)O; Isovaleryl = CC(C)CC(=O)*; Cbz = O=C(OCc1ccccc1)*; CH2F = FC*

In assay [1] the test system is caspase-1. The assay is described as follows: Caspase-1 cleavage/activation in mouse macrophages (Western blot p10). The class given is cell-based. The method, then: (§1) Bone marrow derived macrophages were generated as described (Severa, M et al. Journal of Biological Chemistry 281:26188-26195 (2006)). Human PBMCs were isolated by from whole blood of healthy volunteers by density gradient centrifugation. Lysis of red blood cells was performed using red blood cell lysis buffer (Sigma). Experiments in PBMCs and macrophages were carried out at a cell density of 2×10^6 cells/ml. All primary cells and cell lines except THP-1 cells were cultured in DMEM supplemented with L-glutamine, ciprofloxacin (Cellgro, Manassas, Va.) and 10% fetal calf serum (Hyclone, Logan, Utah). THP-1 cells were cultured in RPMI supplemented with 10% fetal calf serum (Hyclone), L-glutamine, sodium pyruvate (Cellgro), and ciprofloxacin. One day prior to stimulation, THP-1 cells were differentiated using 0.5 μM PMA for three hours, washed three times and plated for stimulation. All experiments that were performed for Western blot analysis were carried out in serum free DMEM medium. ATP stimulations were carried out at 5 mM one hour prior to harvesting supernatants.
Cell culture supernatants were precipitated by adding an equal volume of methanol and 0.25 volumes of chloroform, vortexed and centrifuged at 20.000×g for 10 min. The upper phase was discarded and 500 μl of methanol was added to the interphase. This mixture was centrifuged at 20.000×g for 10 min and the protein pellet dried at 55° C., resuspended in Laemmli buffer and boiled at 99° C. for 5 min. Samples were separated by SDS-PAGE (15%) and transferred onto nitrocellulose membranes. As indicated, blots were incubated with rabbit polyclonal antibody to anti murine caspase-1 p10 (sc-514, Santa Cruz Biotechnology, Santa Cruz, Calif.), rabbit polyclonal anti human caspase-1 p10 (sc-515, Santa Cruz Biotechnology), rabbit polyclonal anti human cleaved IL-1β (Asp116) (Cell Signaling, Boston, Mass.) or rabbit polyclonal anti murine cathepsin B (R&D Systems, Minneapolis, Minn.).
Cell culture supernatants were precipitated by adding an equal volume of methanol and 0.25 volumes of chloroform, vortexed and centrifuged at 20,000×g for 10 min. The upper phase was discarded and 500 μl of methanol was added to the interphase. This mixture was centrifuged at 20,000×g for 10 min and the protein pellet dried at 55° C., resuspended in Laemmli buffer and boiled at 99° C. for 5 min Samples were separated by SDS-PAGE (15%) and transferred onto nitrocellulose membranes. Blots were incubated with rabbit polyclonal antibody to anti murine caspase-1 p10 (sc-514, Santa Cruz Biotechnology, Santa Cruz, Calif.).
On the technique in general: In western blotting, separated proteins are transferred to a membrane and probed.

A further assay has as its system THP-1 cells. Kind of assay: Lysosomal rupturing in THP-1 cells, IL-1β release. The settings on record: PMA-differentiated THP-1 cells. It is filed as cell-based, human. How it is done: Cell culture supernatants were assayed for IL-1β using ELISA kits from BD Biosciences (Franklin Lakes, NJ) according to the manufacturer's instructions. To measure intracellular IL-1β, cells were washed and subjected to three freeze thaw cycles in assay diluent. PMA-differentiated THP-1 cells were incubated with hypertonic DMEM medium containing 10% polyethylene glycol (PEG) 1000, 1.4 M sucrose, 20 mM Hepes (pH 7.2) and 5% FCS for […] at 37° C. Cells were subsequently washed and incubated in hypotonic DMEM medium [DMEM: H2O (3:2)] for 2 min to induce lysosomal rupturing. Cells were then incubated in serum free DMEM for additional 4 hours.

Another assay concerns mouse microglia. The assay is described as follows: IL-1β release from LPS-primed mouse microglia (ELISA). The class given is cell-based. The settings on record: LPS-primed immortalized microglia. How it is done:
For primary cultures, bone marrow-derived macrophages and microglia were isolated as described^42,43 and cultured in DMEM supplemented with L-glutamine, ciprofloxacin (Cellgro, Manassas, Va.) and 10% fetal calf serum (Hyclone, Logan, Utah) Immortalized macrophage and microglial cell lines were generated using J2 recombinant retrovirus (carrying v-myc and v-raf oncogenes)^44,45. Briefly, primary bone marrow cells were incubated in L929 conditioned medium for 3-4 days to induce macrophage differentiation. Cells were then infected with J2 recombinant retrovirus and maintained in culture until cells were growing in the absence of conditioned medium. Similarly, primary mixed glial cultures were cultured until fully confluent. After two consecutive infections with J2 retrovirus, cells were maintained in normal medium until growth of microglial cells in colonies was observed. The semi-adherent colonies of microglial cells were washed off and cultured in new flasks. […] Microglial cell lines form wild type (C57/BL6), Caspase-1^−/− and IL-IR^−/− mice as well as macrophage cell lines from wild type (C57BL6), NALP3 -, IPAF- and ASC-deficient mice were generated and used for experiments as indicated.
(§2) Stimulations were carried out in serum free DMEM medium. Microglial cells and macrophages were primed with 100 U/ml IFNγ (Griess assay, TNF ELISA, real-time quantitative PCR) or 100 ng/ml ultrapure LPS (IL-1β ELISA, FLICA, ASC-CFP microglia cell line assay, Western blot) 1-3 h prior to stimulation with Aβ, revAβ, zymosan, ATP or transfection with dAdT.
Cell culture supernatants were assayed for IL-1β and TNFα using ELISA kits from R&D Systems (Minneapolis, Minn.) according to the manufacturer's instructions. Nitric oxide was measured by Griess reaction of nitrites accumulated in the supernatants using chemicals from Sigma.

Assay [2] relates to caspase-1. The assay is described as follows: Caspase-1 activation in microglia (FLICA, confocal microscopy, flow cytometry). The class given is cell-based, mouse. The note with it: microglia, FLICA. The method, then:
For assessment of microglia-induced neurotoxicity, CAD mouse neuronal cells^47 were seeded on poly-L-lysine coated glass cover slips and grown in F12/DMEM supplemented with ciprofloxacin (Cellgro, Manassas, Va.) and 10% fetal calf serum (Hyclone, Logan, Utah) for 24 h. Differentiation was induced by withdrawal of serum for 48 h Immortalized microglia from wildtype or caspase-1^−/− mice were added in serum free medium to obtain mixed neuronal/microglial cultures and immediately stimulated. 72 h after stimulation with Aβ or media, cells were fixed, stained for the neuron-specific marker TuJ-1 and microglial marker CD11b, and imaged by confocal microscopy (Leica SP2 AOBS). Caspase-1 activity in microglial cells was assessed using the caspase-1 FLICA™ kit (Immunochemistry Technologies, Bloomington, Minn.) according to the manufacturer's instructions.
For evaluation of lysosomal damage, cells were incubated with LysoTracker green (1:2000) for 30 min and stimulated as described. Lysosomal damage was defined as loss of LysoTracker fluorescence as assessed by flow cytometry. All flow cytometry experiments were performed on an LSRII cytometer (BD Biosciences), data were acquired by DIVA software (BD Biosciences) and analyzed with FlowJo software (Tree Star Inc., Ashland, Oreg.).
IL-1β maturation is controlled by caspase-1 after assembly of the inflammasome, a multi protein complex that activates pro-caspase-1. In order to test whether Aβ activates caspase-1, we measured levels of activated caspase-1 using a fluorescent cell permeable probe (FAM-YVAD-Fmk), which covalently binds only to activated caspase-1 (Fluorescent labeled Inhibitors of Caspases, FLICA)^14. […] Similar results were obtained in primary microglial cultures (FIG. 15c).

Another assay relates to mouse macrophages. The assay is described as follows: IL-1β release from LPS-primed mouse macrophages (bone marrow-derived, B6-MCLs), ELISA. The class given is cell-based. The method, then: as §1
Immortalized macrophage cell lines were generated using the previously described J2 recombinant retrovirus (carrying v-myc and v-raf/mil oncogenes) (Roberson, S. M. & Walker, W. S. Cellular immunology 116:341-351 (1988)). Briefly, primary bone marrow cells were incubated in L929 conditioned medium for 3-4 days to induce macrophage differentiation. Subsequently, cells were infected with J2 recombinant retrovirus. Cells were maintained in culture for 3-6 months slowly weaning off the percentage of L929 supernatant until cells were growing in the absence of conditioned medium.
Macrophage phenotype was verified by surface marker expression for CD11b and F480 as well as a range of functional parameters, including responsiveness to TLR ligands and bacterial uptake. Macrophage cell lines from wild-type (C57BL6), NALP3- and ASC-deficient mice were generated and are referred to as B6-MCLs, NALP3 -MCLs and ASC-MCLs.
Cell culture supernatants were assayed for IL-1β using ELISA kits from BD Biosciences (Franklin Lakes, NJ) according to the manufacturer's instructions. To measure intracellular IL-1β, cells were washed and subjected to three freeze thaw cycles in assay diluent.
as §2
In general terms: An ELISA detects its analyte on a solid surface through an enzyme-linked reagent.

Assay [3] relates to lysosomes of mouse macrophages. Kind of assay: Lysosomal acidification, proteolysis and rupture in mouse macrophages (LysoSensor Green, DQ ovalbumin, acridine orange, dextran). The class given is cell-based. The method, then: For evaluation of lysosomal rupture, cells were incubated with 1 μg/m1 acridine orange for 15 min, washed three times and subsequently stimulated as indicated. Lysosomal rupture can be assessed by loss of emission at 600-650 nm using flow cytometry. All flow cytometry experiments were performed on an LSRII cytometer (BD Biosciences). Data were acquired by DIVA (BD Biosciences) and analyzed by FlowJo software (Tree Star Inc., Ashland, Oreg.).
Confocal reflection microscopy was combined with fluorescence microscopy on a Leica SP2 AOBS confocal laser scanning microscope. Reflection was captured by placing the detector channel directly over the wavelength of the selected laser channel for reflection light capture and the AOBS was set to allow 5-15% of laser light into the collection channel. Fluorescence was simultaneously captured by standard confocal imaging techniques.

In the case of `CCCNC(=O)[C@H]1O[C@@H]1C(=O)N[C@H](C(=O)N1CCC[C@H]1C(=O)OC)[C@@H](C)CC` [CA-074-Me], in the assay with caspase-1 [1] (LPS-primed B6-MCLs, CA-074-Me 10 μM (FIG. 5a)), the “caspase-1 activation after silica crystal treatment, inhibitor present” value is on record as “much less caspase-1 activation”. Further, in the assay on caspase-1 [1] (mouse macrophages, hypertonic then hypotonic media, CA-074-Me 10 or 2 μM), the “caspase-1 cleavage after crystal-independent disruption of lysosomes, inhibitor present” value is given as “partially inhibited”. Moreover, the “IL-1β release after lysosomal rupture, inhibitor present” value in the assay on THP-1 cells was “clearly reduced”. Moreover, the “Aβ-induced IL-1β release in presence of cathepsin inhibitor” value in the assay with mouse microglia is reported as “dose-dependently inhibited”. Besides, the “caspase-1 activation after Aβ stimulation, inhibitor present” value in the assay on caspase-1 [2] (flow cytometry) was “strongly and dose-dependently inhibited; also recorded: dose-dependently reduced”. In the assay on caspase-1 [2] (inhibitor 20 μM), the “caspase-1 activation induced by ATP, inhibitor present” value is listed as “not affected; also recorded: no effect”.
With `COC(=O)[C@H](CC(C)C)NC(=O)[C@@H](N)CC(C)C` [Leu-Leu-OMe, L-leucyl-L-leucine methyl ester], the “IL-1β produced in response to the stimulus” value with mouse macrophages (LPS-primed macrophages from wild-type mice) is “large quantities of IL-1β”. The “lysosomal rupture / loss of lysosomes caused by the stimulus” value in assay [3] (mouse macrophages, acridine orange, DQ ovalbumin, dextran) is “considerable swelling and rupture of lysosomes”.
For `O=C(NC(Cc1ccccc1)C(=O)NC(Cc1ccccc1)C(=O)CF)OCc1ccccc1` (stereo not drawn) [Z-FF-FMK] (Cbz-Phe-Phe-CH2F; configuration not given here), the “Aβ-induced IL-1β release in presence of cathepsin inhibitor” value in the assay on mouse microglia is listed as “no effect; also recorded: no attenuation”.
Consider `CO/C1=C\C(C)=C\[C@@H](C)[C@@H](O)[C@@H](C)C/C(C)=C/C=C/[C@H](OC)[C@@H]([C@@H](C)[C@@H](O)[C@H](C)[C@@]2(O)C[C@@H](O)[C@H](C)[C@@H](C(C)C)O2)OC1=O` [bafilomycin A], for which, in the assay on mouse macrophages (LPS-primed B6-MCLs, 6 h), the “ATP-induced IL-1β release, inhibitor present” value is “no effect” and the “silica-mediated IL-1β release, inhibitor present” value is “completely blocked”. In the assay with mouse macrophages (LPS-primed bone marrow-derived macrophages, bafilomycin 250 nM), the “release of IL-1b in response to Leu-Leu-OMe, inhibitor present” value was “also inhibited”. For the same molecule, the “formation of acidic lysosomes (LysoSensor Green)” value in assay [3] (mouse macrophages) was “blocked”. For the same molecule, the “Leu-Leu-OMe-induced lysosomal morphology change and rupture, inhibitor present” value in assay [3] (mouse macrophages (data not shown)) was “much less altered lysosomal morphology and rupture”. For the same molecule, in assay [3] (mouse macrophages, bafilomycin 250 nM), the “appearance of fluorescent DQ ovalbumin (lysosomal proteolytic function)” value is “suppressed”.
In the case of `CC(C)CC(=O)N[C@H](C(=O)N[C@H](C(=O)N[C@@H](CC(C)C)[C@@H](O)CC(=O)N[C@@H](C)C(=O)N[C@@H](CC(C)C)[C@@H](O)CC(=O)O)C(C)C)C(C)C` [pepstatin A] (Isovaleryl-VV[Sta]A[Sta]-OH), the “Aβ-induced IL-1β release in presence of cathepsin inhibitor” value in the assay with mouse microglia is recorded as “no effect; also recorded: no attenuation”.
“poly(deoxyadenylic-thymidylic) acid sodium salt [poly(dA:dT)]”: in the assay on caspase-1 [1] (LPS-primed bone marrow-derived macrophages, wild-type), the “caspase-1 cleavage induced by the stimulus” value was “induced in a dose dependent way”. Also, in the assay with caspase-1 [1] (LPS-primed wild type bone marrow-derived macrophages, Aβ and reverse Aβ 10 μM), the “caspase-1 cleavage (p10) induced by the stimulus” value is listed as “induced caspase-1 cleavage (p10)”.
